The test deals with T1, HDAC6 (Homo sapiens, UniProt Q9UBN7).
T1 sequence (Q9UBN7 1-1215): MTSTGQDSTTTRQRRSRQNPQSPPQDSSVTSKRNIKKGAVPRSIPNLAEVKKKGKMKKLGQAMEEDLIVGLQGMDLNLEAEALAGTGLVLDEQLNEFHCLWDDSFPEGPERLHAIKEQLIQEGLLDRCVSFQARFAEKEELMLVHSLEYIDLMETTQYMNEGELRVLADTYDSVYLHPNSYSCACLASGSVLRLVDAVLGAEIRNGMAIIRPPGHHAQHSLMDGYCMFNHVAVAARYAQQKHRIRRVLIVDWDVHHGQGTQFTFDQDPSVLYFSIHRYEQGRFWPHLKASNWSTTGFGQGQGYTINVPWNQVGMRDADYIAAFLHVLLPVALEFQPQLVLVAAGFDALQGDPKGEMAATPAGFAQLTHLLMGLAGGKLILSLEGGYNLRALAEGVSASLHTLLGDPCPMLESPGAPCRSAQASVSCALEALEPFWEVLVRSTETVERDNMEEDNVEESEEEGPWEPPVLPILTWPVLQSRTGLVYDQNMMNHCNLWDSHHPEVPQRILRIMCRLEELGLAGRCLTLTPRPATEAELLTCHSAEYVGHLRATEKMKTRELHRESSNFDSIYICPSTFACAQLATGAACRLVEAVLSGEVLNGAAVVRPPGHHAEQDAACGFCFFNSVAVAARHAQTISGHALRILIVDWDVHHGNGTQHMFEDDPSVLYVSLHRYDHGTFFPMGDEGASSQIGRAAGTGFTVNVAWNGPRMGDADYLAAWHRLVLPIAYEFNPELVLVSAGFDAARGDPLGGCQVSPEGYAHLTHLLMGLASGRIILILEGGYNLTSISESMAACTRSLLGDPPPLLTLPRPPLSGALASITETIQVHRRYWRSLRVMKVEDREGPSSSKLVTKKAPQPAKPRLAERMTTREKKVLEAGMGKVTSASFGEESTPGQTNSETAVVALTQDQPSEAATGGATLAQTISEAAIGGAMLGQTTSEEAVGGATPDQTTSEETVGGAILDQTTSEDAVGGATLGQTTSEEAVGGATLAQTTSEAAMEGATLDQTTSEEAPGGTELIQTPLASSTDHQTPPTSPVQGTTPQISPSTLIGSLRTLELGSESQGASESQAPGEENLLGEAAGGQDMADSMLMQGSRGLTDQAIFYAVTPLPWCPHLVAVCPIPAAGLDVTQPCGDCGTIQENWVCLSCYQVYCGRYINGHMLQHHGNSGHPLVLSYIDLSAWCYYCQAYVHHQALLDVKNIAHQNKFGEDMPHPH
The test is described as follows: SPR (Biacore T200, immobilized HDAC6); also enzymatic inhibition IC50 […] and CETSA in MGC-803 cells. It is filed as binding. Background: Surface plasmon resonance follows binding to a sensor surface in real time, without labels.

Usually Kd stands for the free concentration of one partner at which half of the binding sites on the other are occupied at equilibrium, for simple one-to-one binding. Lower therefore signals a tighter complex. The molecule `Cc1ccc([C@@H]2O[C@H](CO)[C@@H](O)[C@H](O)[C@H]2O)cc1Cc1ccc(-c2ccc(F)cc2)s1` [canagliflozin] returned a Kd of 0.859 µM.

Source of the values: article PMC9705739, “Canagliflozin, characterized as a HDAC6 inhibitor, inhibits gastric cancer metastasis” (Frontiers in Oncology, 2022).
